Reference: patent publication US20260083674A1, “OXAZOLIDINONE LIPOSOME COMPOSITIONS” (priority 2021, published 2026)
In brackets after ≈: the same amount, converted by molar mass. Like-named read-outs stand apart in the source and are kept apart here.

Columns and labels:
[1] = test system: mitochondrial protein synthesis vs H37Rv M. tuberculosis; test: MPS selectivity index (MPS IC50 / MIC H37Rv)
[2] = test system: M. tuberculosis Erdman or H37Rv vs VERO or HepG2 cell lines; test: Selectivity Index (IC50 mammalian cells / MIC bacteria); parameters: species or system Mycobacterium tuberculosis; settings: for Selectivity Index (SI) Erd/HepG2: IC50 HepG2 / MIC Erdman; for Selectivity Index (SI) H37Rv/HepG2: IC50 HepG2 / MIC H37Rv; for Selectivity Index (SI) Erd/VERO: IC50 VERO / MIC Erdman; for Selectivity Index (SI) H37Rv/VERO: IC50 VERO / MIC H37Rv
[3] = test system: human hepatocyte/liver (HepG2; ATCC #HB8065) cells; test: In vitro cytotoxicity (PrestoBlue cell viability), HepG2 cells; settings: HepG2, 72 h, read-out: Cell viability IC50, HepG2
Procedure: (§1) Data is reported out as the full cell viability curve, as well as a calculation of the actual IC50 value for each compound.
(§2) Adherent cells were grown to ˜80% confluency. […] The cell density was determined using a hemocytometer.
(§3) These compounds were provided as sterile aqueous solutions of HCl salts with a concentration of 5 mg/ml. For making dilutions, each drug stock was warmed to room temperature, vortexed and was visually inspected for precipitation. If solid drug was present, the stock was heated on a 60° C. water bath and then allowed to cool to near room temperature. Based on the treatment concentrations, 20× working stocks were made by serial dilution.
(§4) At the end of the compound incubation period, replace the media in each well with 100 μl of 1× PrestoBlue Cell Viability Reagent (ThermoFisher Cat #A13261). Incubate the plate at 37° C. in a humidified incubator with 5% CO2 30 min to 2 h. […] Read fluorescence with 560 nm excitation and 590 nm emission using SpectraMax M5 plate reader (Molecular Devices). Correct background by subtracting the RFU of the control containing only the culture medium (background control well) from all sample readings. Calculate the percentage of cytotoxicity using the formula below:
(§5) The IC50 was determined using GraphPad Prism using the following formula:

M.tb Erdman = test: Broth microdilution MIC with Alamar blue endpoint (MABA), M.tb Erdman; type: cell-based, Mycobacterium tuberculosis; settings: for MIC: Mycobacterium tuberculosis, ERDMAN, broth microdilution, MABA/OD600
[4] = test system: African green monkey kidney (Vero; ATCC #CCL81) cells; test: In vitro cytotoxicity (PrestoBlue cell viability), Vero cells; settings: Chlorocebus sabaeus, 72 h, read-out: Cell viability IC50, VERO
Procedure: as §1, §2, §3, §4, §5

M.tb H37Rv = test: Broth microdilution MIC with Alamar blue endpoint (MABA), M.tb H37Rv; type: cell-based; settings: Mycobacterium tuberculosis
[5] = type: physicochemical
Procedure: To the resulting cake or syrup, water was added typically to the final 10 mg/ml, and complete dissolution was observed. […] Aqueous solubility of the compounds of the present disclosure is illustrated by the following observations of obtaining visually clear solutions: […]

[6] = test system: methicillin resistant Staphylococcus aureus (MRSA) ATCC BAA-1556; settings: cited from earlier work
[7] = Liposome loading: encapsulated drug-to-lipid ratio and encapsulation efficiency; type: physicochemical
Procedure: 1. The lipid components (phospholipid (PhL), cholesterol, and optionally—a PEG-lipid derivative and/or a lipid fluorescent label were combined in an amount of 100% ethanol equal to one-tenth of a volume (V) calculated to obtain lipid suspension with about 60 mM phospholipid and stirred at the temperature of 65-68° C. until complete dissolution of the lipids.
2. The ethanolic lipid solution was combined with volume V of the trapping agent solution (0.25-0.5 M ammonium sulfate or 1 N triethylammonium sucrose octasulfate) upon stirring at 65-68° C. until a uniform suspension was obtained.
3. The lipid suspension was extruded at least three times through a stack of track-etched polycarbonate membranes, typically, two or four membranes with the nominal pore size of 100 nm and one with the nominal pore size 200 nm (Whatman Nuclepore, USA), using a thermobarrel extruder (Lipex, Canada) at 65-68° C., at the pressure of 400-450 psi. When two 100-nm membranes were used in a 100-ml Lipex extruder, the extrusion pressure was typically 260-300 psi. The resulting liposomes have Z-average particle size (diameter) Xz between about 80 and about 130 nm, and PDI less than 0.1.
5. An aliquot of the extruded, filtered liposome suspension so made was chromatographed on a gravity-fed Sepharose CL-4B size exclusion column (eluent-Type 1 water), to purify the liposomes from extraliposomal trapping agent. The purified liposomes were collected near the void volume fraction of the column. For a scale-up studies, this step was performed using a tangential flow filtration (TFF) on a hollow fiber cartridge (Repligen Spectrum MicroKros PS or mPES membrane with MWCO of 500 KDa) effecting 8-10 volume exchanges (or until the conductivity of the liposome suspension dropped below 200 μS/cm) with Type 1 or USP “Water for injection” endotoxin-free water.
6. The lipid concentration in a purified extruded liposome preparation was determined using HPLC with UV detection, by measuring the concentration of cholesterol and correcting for the known phospholipid/cholesterol molar ratio. Alternatively, a spectrophotometric blue phosphomolybdate method was used to directly quantify the phospholipid content.
7. The drug was dissolved in Type 1 or endotoxin-free pure water in the form of a hydrochloric acid salt (e.g., AKG-3 and AKG-5 were used as monohydrochloride, AKG-28 and AKG-29 were used as dihydrochloride) at the concentration of 5-20 mg/ml of the drug. To the drug prepared in free base form (e.g., AKG-16, AKG-38), an equivalent amount of HCl was added. If necessary, pH of the solution was brought between pH 2.5-5.5, using 1 N NaOH, HCL, or tris(hydroxymethyl)aminomethane (Tris)-base solution, and the solution was filtered through a 0.2-micron PES filter under positive pressure. When necessary, the drug concentration in the stock solution so made was verified by HPLC with UV detection at 305 nm.
8. Purified liposomes of step 5 and the drug stock solution were combined in the presence of an osmotic agent (typically dextrose) and water in the amounts necessary to provide a desired drug-to-phospholipid (DL) ratio, the drug concentration in the range 1.5-3.3 mg/ml, at the osmolality equal to the measured osmolality of the trapping agent solution of step 2. Optionally, a buffer at a desired pH (typically pH 4 to pH 7) was added. In some instances, the amount of added osmotic agent (e.g., dextrose at about 45 g/L) provided osmolality less that the measured osmolality of the trapping agent solution, and the loading was effected at 6-8 mg/ml of the drug.
9. The drug-liposome mixture was incubated with constant agitation at 65-68° C. for about 15-20 min and quickly chilled on ice. After 5-10 min, the mixture was allowed to reach ambient temperature an adjusted to 0.1M NaCl by adding a calculated amount of 3 M NaCl stock solution.
10. […] The liposome fractions were collected near the column void volume. […]

[8] = test system: methicillin resistant Staphylococcus aureus (MRSA) ATCC 43300; test: MIC against MRSA strain ATCC 43300; settings: read-out: MRSA MIC, strain ATCC 43300
[9] = test system: methicillin resistant Staphylococcus aureus (MRSA) ATCC BAA-1556; test: MIC against MRSA strain ATCC BAA-1556; settings: ATCCBAA1556|MRSA
[10] = test system: methicillin resistant Staphylococcus aureus (MRSA) 880 NR-49120; test: MIC against MRSA strain 880 NR-49120; settings: read-out: MRSA MIC, strain 880 NR-49120
[11] = test system: mitochondrial protein synthesis (COX-1/SDH-A) in H9C2 rat heart myoblast cells; test: Inhibition of mitochondrial protein synthesis (MitoBiogenesis in-cell ELISA, COX-1/SDH-A); settings: H9c2, 120 h, read-out: MPS IC50
Procedure: Inhibition of mitochondrial protein synthesis was determined using a colorimetric MitoBiogenesis™ in-cell ELISA kit from AbCam (Catalog #ab11021), as per the manufacturer's instructions. […] The levels of two mitochondrial proteins were measured simultaneously, including the mitochondrial DNA-encoded subunit I of Complex IV (COX-1) and the nuclear DNA-encoded 70 kDa subunit of Complex II (SDH-A). The H9C2 rat BDIX heart myoblast cell line was used in these studies in a 384 well plate assay format. Cells were grown in DMEM media with 10% FBS and 1×Glutamine at 37° C. and 5% CO2. […] Ten concentrations of each compound, starting at a high concentration of 200 μM and including nine 3-fold dilutions and one replicate per condition, were added to the cells in 2.5 μl and incubated with the cells for five days at 37° C. and 5% CO2.
COX-I and SDH-A signals were plotted as a ratio of COX-1/SDH-A against concentration of each compound, and the IC50 were calculated for each of the 9 investigational compounds and two controls.

[12] = broth microdilution, MABA/OD600, read-out: Mycobacterium tuberculosis MIC, H37Rv
[13] = 1 N TEA-SOS, DL0 750-1500 g/mol PhL
[14] = read-out: MIC against the three MRSA strains
[15] = read-out: MRSA MIC, strain ATCC BAA-1556

| SMILES | SI-MPS MPS/H37 [1] | Selectivity Index (SI) H37Rv/HepG2 [2] | Selectivity Index (SI) Erd/VERO [2] | Selectivity Index (SI) H37Rv/VERO [2] | IC50 [3] | MIC (M.tb Erdman) | IC50 [4] | MIC (M.tb H37Rv; [12]) | other results |
| --- | --- | --- | --- | --- | --- | --- | --- | --- | --- |
| Cl.NCCn1nnnc1-c1ccc(-c2ccc(N3C[C@H](CO)OC3=O)cc2F)cn1 [AKG-22] | 2.37 |  |  |  |  |  |  |  |  |
| CCN(CC)CCNC[C@H]1CN(c2ccc(-c3ccc(-c4nnn(C)n4)nc3)c(F)c2)C(=O)O1 [AKG-9] |  | 3.5 | <17.4 | <17.4 | 28.1 µg/mL (≈ 60 µM) | > 8 µg/mL | 139 µg/mL (≈ 297 µM) | > 8 µg/mL | Selectivity Index (SI) Erd/HepG2 [2]: <3.5 |
| CN(C)CCn1nnc(-c2ccc(-c3ccc(N4C[C@H](CN)OC4=O)cc3F)cn2)n1 [AKG-28] |  |  |  |  |  |  |  |  | Concentration % (w/w) of free base, visually clear solution [5]: 7.3 % (w/w) |
| CN(C)CCNc1ccc(-c2ccc(N3C[C@H](CO)OC3=O)cc2F)cn1 [AKG-12] |  | 16.9 | 22.3 | 22.3 | 67.6 µg/mL (≈ 181 µM) | 4 µg/mL (≈ 10.7 µM) | 89.1 µg/mL (≈ 238 µM) | 4 µg/mL (≈ 10.7 µM) | Selectivity Index (SI) Erd/HepG2 [2]: 16.9 |
| Cn1nnc(-c2ccc(-c3ccc(N4C[C@H](CO)OC4=O)cc3F)cn2)n1 [Tedizolid, reference compound] | 0.57 |  |  |  |  |  |  |  | MIC described in U.S. Pat. No. 7,816,379 [6]: 0.5 µg/mL (≈ 1.35 µM) |
| CN(C)CCn1nnc(-c2ccc(-c3ccc(N4C[C@H](CO)OC4=O)cc3F)cn2)n1 [AKG-16] |  |  |  |  |  |  |  |  | Concentration % (w/w) of free base, visually clear solution [5]: 30.0 % (w/w); Maximum encapsulated drug payload ([7]; 0.5 M AS, 0.5 mol % PEG): 668-675 g/mol PhL; Maximum encapsulated drug payload ([7]; 0.5 M AS, 5 mol % PEG): 614-619 g/mol PhL; maximum drug load [7, 13]: 938-951 g/mol PhL |
| Cl.Cl.NCCn1nnc(-c2ccc(-c3ccc(N4C[C@H](CN)OC4=O)cc3F)cn2)n1 [AKG-29] | 32.80 |  |  |  | 74.4 µg/mL | 0.25 µg/mL | 110 µg/mL |  | MIC [8]: > 50 µg/mL; MIC [9, 14]: > 50 µg/mL; MIC [9, 15]: 50 µg/mL; MIC [10]: 50 µg/mL |
| CCN(CC)CCCn1nnc(-c2ccc(-c3ccc(N4C[C@H](CN)OC4=O)cc3F)cn2)n1.Cl [AKG-31] |  | 26.4 |  | 223.0 | 13.2 µg/mL | 0.5 µg/mL | 112 µg/mL | 0.5 µg/mL |  |
| CCN(CC)CCCNC[C@H]1CN(c2ccc(-c3ccc(-c4nnn(C)n4)nc3)c(F)c2)C(=O)O1 [AKG-8] |  |  |  |  |  | > 8 µg/mL |  | > 8 µg/mL |  |
| Cl.Cn1nnc(-c2ccc(-c3ccc(N4C[C@H](CNC(=O)CCN)OC4=O)cc3F)cn2)n1 [AKG-17] |  | 18.7 | >125 | >125 | 37.3 µg/mL | 2 µg/mL |  | 2 µg/mL | Selectivity Index (SI) Erd/HepG2 [2]: 18.7 |
| Cl.Cn1nnc(-c2ccc(-c3ccc(N4C[C@H](CNC(=O)CCCN)OC4=O)cc3F)cn2)n1 [AKG-18] |  | 4.8 | >125 | >125 | 9.5 µg/mL | 2 µg/mL | > 250 µg/mL | 2 µg/mL | Selectivity Index (SI) Erd/HepG2 [2]: 4.8 |
| CC(=O)NC[C@H]1CN(c2ccc(-c3ccc(-c4nnn(CCN(C)C)n4)nc3)c(F)c2)C(=O)O1 [AKG-38] |  |  |  |  | 97 µg/mL (≈ 207 µM) |  | ≥ 395 µg/mL |  | Concentration % (w/w) of free base, visually clear solution [5]: 7.1 % (w/w); maximum drug load ([7]; 0.5 M AS, HSPC/Chol 3:2, 0.5 mol % PEG-DSG (Example 14)): 818-842 g/mol PhL; maximum drug load ([7]; 1 N TEA-SOS, HSPC/Chol 3:2, 0.5 mol % PEG-DSG (Example 14)): 989 g/mol PhL; drug load ([7]; 30 mol % cholesterol, 5 mol % PEG-DSG, 1 N TEA-SOS): 462.4 g/mol PhL; IC50 [11]: 0.041 µg/mL (≈ 0.0875 µM) |
| Cl.Cn1nnc(-c2ccc(-c3ccc(N4C[C@H](CNCCN)OC4=O)cc3F)cn2)n1 [AKG-19] |  | 5.3 | >31.3 | >31.3 | 42.2 µg/mL | > 8 µg/mL | > 250 µg/mL | > 8 µg/mL | Selectivity Index (SI) Erd/HepG2 [2]: 5.3 |
| CCN(CC)CCn1nnc(-c2ccc(-c3ccc(N4C[C@H](CNC(C)=O)OC4=O)cc3F)cn2)n1 [AKG-39] | 0.12 |  |  |  |  |  |  |  | MIC, M. tuberculosis (Example 2) (M.tb Erdman; strain not given): 0.5 µg/mL (≈ 1.01 µM) |
| CCN(CC)CCCn1nnc(-c2ccc(-c3ccc(N4C[C@H](CNC(C)=O)OC4=O)cc3F)cn2)n1 [AKG-40] | 0.13 |  |  |  |  |  |  |  |  |
| CN(C)CCCC(=O)OC[C@H]1CN(c2ccc(-c3ccc(-c4nnn(C)n4)nc3)c(F)c2)C(=O)O1 [AKG-5] |  |  | 32.5 |  |  |  |  |  | Maximum encapsulated drug payload ([7]; 0.5 M AS, 0.5 mol % PEG): 627 g/mol PhL; Drug loading efficiency ([7]; 0.5 mol % PEG-DSG, 1N TEA-SOS, DL0 500 g/mol PhL (Example 8, no added buffer)): 101.3; Drug loading efficiency ([7]; 0.5 mol % PEG-DSG, […] AS, DL0 250 g/mol PhL): 98.5; Drug loading efficiency ([7]; 0.5 mol % PEG-DSG, […] AS, DL0 500 g/mol PhL): 97.7; loading efficiency at or near the maximum drug load [7, 13]: ≥ 96.0%; maximum drug load [7, 13]: 982-1197 g/mol PhL; Drug loading efficiency ([7]; 5 mol % PEG-DSG, 1N TEA-SOS, DL0 500 g/mol PhL): 99.3 |
| CN(C)CCCn1nnc(-c2ccc(-c3ccc(N4C[C@H](CN)OC4=O)cc3F)cn2)n1.Cl (stereo in doubt) [AKG-30] | 2.02 |  |  |  | 18.9 µg/mL |  | 110 µg/mL |  | MIC [8]: > 50 µg/mL; MIC [9, 14]: > 50 µg/mL; MIC [9, 15]: > 50 µg/mL; MIC [10]: > 50 µg/mL; IC50 [11]: 0.252 µg/mL; MIC (M.tb H37Rv; read-out: MIC (H37Rv)): 0.125 µg/mL |
